According to patent publication USRE39591E1, “6-O-substituted ketolides having antibacterial activity” (Abbott Laboratories, priority 1996, dated 2007):

System: up to 32 different microorganisms
Assay: in vitro antibacterial activity (MIC), agar dilution on Brain Heart Infusion (BHI) agar with Steers replicator
Assay type: cell-based
Details: unit assumed
Method in brief: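 Agar dilution MIC: twelve successive compound dilutions in BHI agar, spot-inoculated with 1:100 (1:10 for slow growers) organism dilutions by Steers replicator, incubated 35-37° C for 20-24 h. MIC is lowest concentration showing no growth, slight haze or sparse colonies versus drug-free control; erythromycin A as class reference.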

CC[C@H]1OC(=O)[C@H](C)C(=O)[C@H](C)[C@@H](O[C@@H]2O[C@H](C)C[C@H](N(C)C)[C@H]2O)[C@@](C)(OCCNCc2ccc3ncccc3c2)C[C@@H](C)C(=O)[C@H](C)[C@H]2NC(=O)O[C@@]21C [Example 227, Compound of Formula (IX): L is CO, T is NH, R is —CH2CH2NHCH2(6-quinolyl)]
MIC (organism code AA): 0.2 µg/mL
MIC (organism code BB): 0.2 µg/mL
MIC (organism code CC): > 100 µg/mL
MIC (organism code DD): 0.2 µg/mL
MIC (organism code EE): 0.2 µg/mL
MIC (organism code FF): 0.2 µg/mL
MIC (organism code GG): > 100 µg/mL
MIC (organism code HH): 0.2 µg/mL
MIC (organism code II): 0.05 µg/mL
MIC (organism code JJ): ≤ 0.005 µg/mL
MIC (organism code KK): 0.05 µg/mL
MIC (organism code LL): 0.02 µg/mL
MIC (organism code MM): 50 µg/mL
MIC (organism code NN): 0.39 µg/mL
MIC (organism code OO): 0.05 µg/mL
MIC (organism code PP): 0.39 µg/mL
MIC (organism code QQ): 6.2 µg/mL
MIC (organism code RR): 0.1 µg/mL
MIC (organism code SS): 25 µg/mL
MIC (organism code TT): > 100 µg/mL
MIC (organism code UU): 1.56 µg/mL
MIC (organism code VV): 0.05 µg/mL
MIC (organism code WW): 2 µg/mL
MIC (organism code XX): 0.03 µg/mL
MIC (organism code YY): 0.03 µg/mL
MIC (organism code ZZ): > 64 µg/mL
MIC (organism code ZZA): 2 µg/mL

CCC1OC(=O)C(C)C(=O)C(C)C(OC2OC(C)CC(N(C)C)C2O)C(C)(OCC=Cc2ccc(C)c3ccccc23)CC(C)C(=O)C(C)C2NC(=O)OC12C (stereo not drawn) [Example 276, Compound of Formula (IX): L is CO, T is NH2, R is —CH2CH═CH-(4-methylnaphthyl)]
MIC (organism code AA): 0.39 µg/mL
MIC (organism code BB): 0.78 µg/mL
MIC (organism code CC): 50 µg/mL
MIC (organism code DD): 0.39 µg/mL
MIC (organism code EE): 0.78 µg/mL
MIC (organism code FF): 0.78 µg/mL
MIC (organism code GG): 25 µg/mL
MIC (organism code HH): 0.78 µg/mL
MIC (organism code II): 0.2 µg/mL
MIC (organism code JJ): 0.02 µg/mL
MIC (organism code KK): 0.1 µg/mL
MIC (organism code LL): 0.02 µg/mL
MIC (organism code MM): 25 µg/mL
MIC (organism code NN): 0.39 µg/mL
MIC (organism code OO): 0.1 µg/mL
MIC (organism code PP): 0.39 µg/mL
MIC (organism code QQ): > 100 µg/mL
MIC (organism code RR): 6.2 µg/mL
MIC (organism code SS): > 100 µg/mL
MIC (organism code TT): > 100 µg/mL
MIC (organism code UU): 0.78 µg/mL
MIC (organism code VV): 1.56 µg/mL
MIC (organism code WW): 8 µg/mL
MIC (organism code XX): 0.125 µg/mL
MIC (organism code YY): 0.125 µg/mL
MIC (organism code ZZ): 16 µg/mL
MIC (organism code ZZA): 0.5 µg/mL

CCC1OC(=O)C(C)C(=O)C(C)C(OC2OC(C)CC(N(C)C)C2O)C(C)(OCC=Cc2ccc3cc(OC)ccc3c2)CC(C)C(=O)C(C)C2NC(=O)OC12C (stereo not drawn) [Example 283, Compound of Formula (IX): L is CO, T is NH2, R is —CH2CH═CH-(6-methoxy-2-naphthyl)]
MIC (organism code AA): 0.1 µg/mL
MIC (organism code BB): 0.1 µg/mL
MIC (organism code CC): 100 µg/mL
MIC (organism code DD): 0.1 µg/mL
MIC (organism code EE): 0.1 µg/mL
MIC (organism code FF): 0.1 µg/mL
MIC (organism code GG): 50 µg/mL
MIC (organism code HH): 0.2 µg/mL
MIC (organism code II): 0.05 µg/mL
MIC (organism code JJ): 0.01 µg/mL
MIC (organism code KK): 0.02 µg/mL
MIC (organism code LL): ≤ 0.005 µg/mL
MIC (organism code MM): 3.1 µg/mL
MIC (organism code NN): 0.2 µg/mL
MIC (organism code OO): 0.01 µg/mL
MIC (organism code PP): 0.2 µg/mL
MIC (organism code QQ): > 100 µg/mL
MIC (organism code RR): 0.78 µg/mL
MIC (organism code SS): > 100 µg/mL
MIC (organism code TT): > 100 µg/mL
MIC (organism code UU): 0.39 µg/mL
MIC (organism code VV): 0.2 µg/mL
MIC (organism code WW): 2 µg/mL
MIC (organism code XX): ≤ 0.004 µg/mL
MIC (organism code YY): ≤ 0.004 µg/mL
MIC (organism code ZZ): 4 µg/mL
MIC (organism code ZZA): 0.125 µg/mL

CC[C@H]1OC(=O)[C@H](C)C(=O)[C@H](C)[C@@H](O[C@@H]2O[C@H](C)C[C@H](N(C)C)[C@H]2O)[C@@](C)(OCC=Cc2ccc(F)cc2)C[C@@H](C)C(=O)[C@H](C)[C@@H](O)[C@]1(C)O [Example 174, Compound of Formula (VIII): X is O, R is CH2—CH═CH-(4-fluorophenyl)]
MIC (Candida albicans CCH 442 (code TT)): > 100 µg/mL
MIC (Enterococcus faecism ATCC 8043 (code II)): 3.1 µg/mL
MIC (Escherichia coli DC-2 (code SS)): > 100 µg/mL
MIC (Escherichia coli JUHL (code QQ)): > 100 µg/mL
MIC (Escherichia coli SS (code RR)): 12.5 µg/mL
MIC (Haemophilis influenzae DILL AMP R (code WW)): 128 µg/mL
MIC (Micrococcus luteus ATCC 4698 (code PP)): 0.78 µg/mL
MIC (Micrococcus luteus ATCC 9341 (code OO)): 0.39 µg/mL
MIC (Mycobacterium smegmatis ATCC 114 (code UU)): 3.1 µg/mL
MIC (Nocardia Asteroides ATCC9970 (code VV)): 0.78 µg/mL
MIC (Staphylococcus aureus 1775 (code GG)): > 100 µg/mL
MIC (Staphylococcus aureus A5177 (code BB)): 3.1 µg/mL
MIC (Staphylococcus aureus A-5278 (code CC)): > 100 µg/mL
MIC (Staphylococcus aureus ATCC 6538P (code AA)): 3.1 µg/mL
MIC (Staphylococcus aureus CMX 553 (code FF)): 3.1 µg/mL
MIC (Staphylococcus aureus CMX 642A (code DD)): 3.1 µg/mL
MIC (Staphylococcus aureus NCTC10649M (code EE)): 3.1 µg/mL
MIC (Staphylococcus epidermidis 3519 (code HH)): 3.1 µg/mL
MIC (Streptococcus Pneumonia 5649 (code ZZA)): 2 µg/mL
MIC (Streptococcus Pneumonia 5979 (code ZZ)): > 128 µg/mL
MIC (Streptococcus Pneumonia ATCC6303 (code XX)): 1 µg/mL
MIC (Streptococcus Pneumonia GYR 1171 (code YY)): 1 µg/mL
MIC (Streptococcus agalactiae CMX 508 (code KK)): 0.39 µg/mL
MIC (Streptococcus bovis A-5169 (code JJ)): 0.2 µg/mL
MIC (Streptococcus pyogenes 930 (code MM)): > 100 µg/mL
MIC (Streptococcus pyogenes EES61 (code LL)): 0.39 µg/mL
MIC (Streptococcus pyogenes PIU 2548 (code NN)): 1.56 µg/mL
